Laboratory results published in patent US4089965A, “Thiazolylphenylguanidines as antirhinovirus agents” (American Cyanamid Company, priority 1977, dated 1978).
In brackets after ≈: the same amount, converted by molar mass. Several values for one entry are separate records, joined by “and”; a condition that tells them apart may be missing. Identical values can stand only once.

What was measured:
[1] = test system: Coxsackievirus A-5; assay: Plaque assay, minimal inhibitory concentration; type: cell-based; settings: HeLa Cells, inhibiting virus plaque formation by 50%
[2] = test system: Coxsackievirus A-21; assay: Plaque assay, minimal inhibitory concentration; type: cell-based; settings: HeLa Cells, inhibiting virus plaque formation by 50%
[3] = test system: Rhinovirus Serotype 14; assay: Plaque assay, minimal inhibitory concentration; type: cell-based; settings: Enterovirus; HeLa Cells; inhibiting virus plaque formation by 50%
[4] = test system: rhinovirus 32; assay: Clinical challenge study, virus isolation from nasal washings; type: in vivo, human; settings: individual subjects on medication, intranasal; + or 0
[5] = test system: Rhinovirus Serotype 3; assay: Plaque assay, minimal inhibitory concentration; type: cell-based; settings: Enterovirus; HeLa Cells; inhibiting virus plaque formation by 50%
[6] = test system: Rhinovirus Type 21; assay: Viral sensitivity, filter disc method; type: cell-based; settings: strain 47CV21; about 50 mcg per disc, HeLa
Protocol: (§1) In the test for viral sensitivity, by the filter disc method, 5 mg. of 1-(4-phenyl-2-thiazolyl)-3-phenylguanidine was dissolved in 1-2 drops of dimethylsulfoxide and 2.5 ml. of saline. Filter paper discs, when saturated with the solution, absorbed about 50 mcg. of the compound.
(§2) Sensitivity tests were performed by a modification of the method of Herrmann, et al., Proc. Soc. Exp. Biol. & Med., 103, 625 (1960). HeLa monolayers in 150 mm plastic dishes were infected with 1.0 ml. of rhinovirus suspension known to produce destruction of 80-90% of the cells in 4 to 5 days. Following viral adsorption, the cells were overlayed with 30 ml. of Eagle's minimum essential medium containing Noble agar at 0.5%, bovine fetal serum at 2.0%, diethylaminoethyl dextran at 100 mcg/ml. and magnesium chloride at 3 millimoles. Filter discs (1/4 inch Carl Schleicher and Schuell Co., No. 740E), containing about 50 mcg. of 1-(4-phenyl-2-thiazolyl)-3-phenylguanidine, were placed on the solidified surface and the culture plates incubated at 33° C. After 4 to 5 days, the overlay medium was decanted and the cells stained with 0.1% crystal violet in 20% ethanol. A zone of 10 mm or more in which at least two-thirds of the cells were protected from viral cytopathic effects, indicates antiviral activity. The following Table III lists 35 rhinovirus serotypes which were inhibited by this compound.

[7] = test system: Rhinovirus Type 26; assay: Viral sensitivity, filter disc method; type: cell-based; settings: strain 5660CV27; about 50 mcg per disc, HeLa
Protocol: as §1, §2

[8] = test system: Rhinovirus Type 22; assay: Viral sensitivity, filter disc method; type: cell-based; settings: strain 127CV22; about 50 mcg per disc, HeLa
Protocol: as §1, §2

[9] = test system: Rhinovirus Type 9; assay: Viral sensitivity, filter disc method; type: cell-based; settings: strain 211CV13; about 50 mcg per disc, HeLa
Protocol: as §1, §2

[10] = test system: Rhinovirus Type 46; assay: Viral sensitivity, filter disc method; type: cell-based; settings: strain Baylor 2; about 50 mcg per disc, HeLa
Protocol: as §1, §2

[11] = test system: Rhinovirus Type 52; assay: Viral sensitivity, filter disc method; type: cell-based; settings: strain 515-CV34; about 50 mcg per disc, HeLa
Protocol: as §1, §2

[12] = test system: Rhinovirus Type 45; assay: Viral sensitivity, filter disc method; type: cell-based; settings: strain Baylor 1; about 50 mcg per disc, HeLa
Protocol: as §1, §2

[13] = test system: Rhinovirus Type 53; assay: Viral sensitivity, filter disc method; type: cell-based; settings: strain FO13928; about 50 mcg per disc, HeLa
Protocol: as §1, §2

[14] = test system: Rhinovirus Type 49; assay: Viral sensitivity, filter disc method; type: cell-based; settings: strain 8213; about 50 mcg per disc, HeLa
Protocol: as §1, §2

[15] = test system: Rhinovirus Type 4; assay: Viral sensitivity, filter disc method; type: cell-based; settings: strain 16/60; about 50 mcg per disc, HeLa
Protocol: as §1, §2

[16] = test system: Rhinovirus Serotype 52; assay: Plaque assay, minimal inhibitory concentration; type: cell-based; settings: Enterovirus; HeLa Cells; inhibiting virus plaque formation by 50%
[17] = test system: Rhinovirus Serotype 2; assay: Plaque assay, minimal inhibitory concentration; type: cell-based; settings: Enterovirus, inhibiting virus plaque formation by 50%
[18] = test system: Rhinovirus strain 2; assay: Protection of tissue from cytopathic effects (plaque inhibition, filter paper disc or agar overlay); settings: 33°, 3 to 5 days
[19] = test system: Rhinovirus strain 23; assay: as above; settings: 33°, 3 to 5 days
[20] = test system: Rhinovirus Serotype 1B; assay: Virus Yield Reduction Test; type: cell-based; settings: for Virus yield: HeLa
[21] = test system: Coxsackievirus A-22; assay: Plaque assay, minimal inhibitory concentration; type: cell-based; settings: HeLa Cells, inhibiting virus plaque formation by 50%
[22] = test system: Rhinovirus Serotype 39; assay: Plaque assay, minimal inhibitory concentration; type: cell-based; settings: Enterovirus; HeLa Cells; inhibiting virus plaque formation by 50%
[23] = test system: rhinovirus 32; assay: Clinical challenge study in volunteers, clinical symptoms and infection; type: in vivo, human; settings: intranasal
[24] = test system: Rhinovirus Serotype 1A; assay: Plaque assay, minimal inhibitory concentration; type: cell-based; settings: Enterovirus; HeLa Cells; inhibiting virus plaque formation by 50%
[25] = test system: Coxsackievirus A-15; assay: Plaque assay, minimal inhibitory concentration; type: cell-based; settings: HeLa Cells, inhibiting virus plaque formation by 50%
[26] = test system: rhinoviruses and other picornaviruses, including coxsackie and poliovirus; type: cell-based
[27] = test system: Rhinovirus Serotype 20; assay: Plaque assay, minimal inhibitory concentration; type: cell-based; settings: Enterovirus; HeLa Cells; inhibiting virus plaque formation by 50%
[28] = test system: Rhinovirus Serotype 5; assay: Plaque assay, minimal inhibitory concentration; type: cell-based; settings: Enterovirus; HeLa Cells; inhibiting virus plaque formation by 50%
[29] = test system: Coxsackievirus B-1; assay: Plaque assay, minimal inhibitory concentration; type: cell-based; settings: HeLa Cells, inhibiting virus plaque formation by 50%

N=C(Nc1ccccc1)Nc1nc(-c2ccccc2)cs1 [1-(4-phenyl-2-thiazolyl)-3-phenylguanidine]
IC50 [1]: 0.4 µg/mL (≈ 1.36 µM)
IC50 [2]: 1.6 to 3.1 µg/mL (≈ 5.44 to 10.5 µM)
IC50 [3]: 0.8 to 1.6 µg/mL (≈ 2.72 to 5.44 µM)
Virus Isolation From Nasal Washings [4]: 0
IC50 [5]: 0.4 to 0.8 µg/mL (≈ 1.36 to 2.72 µM)
inhibition of rhinovirus serotype (zone of 10 mm or more) [6]: inhibited
inhibition of rhinovirus serotype (zone of 10 mm or more) [7]: inhibited
inhibition of rhinovirus serotype (zone of 10 mm or more) [8]: inhibited
inhibition of rhinovirus serotype (zone of 10 mm or more) [9]: inhibited
inhibition of rhinovirus serotype (zone of 10 mm or more) [10]: inhibited
inhibition of rhinovirus serotype (zone of 10 mm or more) [11]: inhibited
inhibition of rhinovirus serotype (zone of 10 mm or more) [12]: inhibited
inhibition of rhinovirus serotype (zone of 10 mm or more) [13]: inhibited
inhibition of rhinovirus serotype (zone of 10 mm or more) [14]: inhibited
inhibition of rhinovirus serotype (zone of 10 mm or more) [15]: inhibited
IC50 [16]: 0.4 µg/mL (≈ 1.36 µM)
IC50 ([17]; L132, L-132 Cells): 0.4 to 0.8 µg/mL (≈ 1.36 to 2.72 µM)
IC50 ([17]; Detroit-6 Cells): 0.4 µg/mL (≈ 1.36 µM)
IC50 ([17]; HeLa Cells): 0.4 to 0.8 µg/mL (≈ 1.36 to 2.72 µM)
Protection of tissue from destruction by virus [18]: +
Protection of tissue from destruction by virus [19]: +
suppression of virus yield ([20]; 24 hours, cultures treated with 0.4 to 0.8 mcg/ml): 1-2 logs
Virus yield ([20]; 0.4 mcg/ml, 0 Hour to +6 Hour, 24 Hours, no drug 7.0): 5.2 Plaque-Forming Units/ml. (Log
Virus yield ([20]; 0.4 mcg/ml, 0 Hour to +6 Hour, 48 Hours, no drug 7.0): 5.8 Plaque-Forming Units/ml. (Log
Virus yield ([20]; 0.4 mcg/ml, +1 Hour to +7 Hour, 24 Hours, no drug 7.0): 6.4 Plaque-Forming Units/ml. (Log
Virus yield ([20]; 0.4 mcg/ml, +1 Hour to +7 Hour, 48 Hours, no drug 7.2): 7.1 Plaque-Forming Units/ml. (Log
Virus yield ([20]; 0.8 mcg/ml, 0 Hour to +6 Hour, 24 Hours, no drug 7.0): 5.7 Plaque-Forming Units/ml. (Log
Virus yield ([20]; 0.8 mcg/ml, 0 Hour to +6 Hour, 48 Hours, no drug 7.0): 6.3 Plaque-Forming Units/ml. (Log
Virus yield ([20]; 0.8 mcg/ml, +1 Hour to +7 Hour, 24 Hours, no drug 7.0): 6.0 Plaque-Forming Units/ml. (Log
Virus yield ([20]; 0.8 mcg/ml, +1 Hour to +7 Hour, 48 Hours, no drug 7.2): 7.4 Plaque-Forming Units/ml. (Log
Virus yield ([20]; 1.6 mcg/ml, 0 Hour to +6 Hour, 24 Hours, no drug 7.0): 5.5 Plaque-Forming Units/ml. (Log
Virus yield ([20]; 1.6 mcg/ml, 0 Hour to +6 Hour, 48 Hours, no drug 7.0): 6.2 Plaque-Forming Units/ml. (Log
Virus yield ([20]; 1.6 mcg/ml, +1 Hour to +7 Hour, 24 Hours, no drug 7.0): 5.4 Plaque-Forming Units/ml. (Log
Virus yield ([20]; 1.6 mcg/ml, +1 Hour to +7 Hour, 48 Hours, no drug 7.2): 6.6 Plaque-Forming Units/ml. (Log
Virus yield ([20]; 3.1 mcg/ml, 0 Hour to +6 Hour, 24 Hours, no drug 7.0): 5.5 Plaque-Forming Units/ml. (Log
Virus yield ([20]; 3.1 mcg/ml, 0 Hour to +6 Hour, 48 Hours, no drug 7.0): 6.1 Plaque-Forming Units/ml. (Log
Virus yield ([20]; 3.1 mcg/ml, +1 Hour to +7 Hour, 24 Hours, no drug 7.0): 4.7 Plaque-Forming Units/ml. (Log
Virus yield ([20]; 3.1 mcg/ml, +1 Hour to +7 Hour, 48 Hours, no drug 7.2): 6.3 Plaque-Forming Units/ml. (Log
Virus yield ([20]; 6.2 mcg/ml, 0 Hour to +6 Hour, 24 Hours, no drug 7.0): 5.8 Plaque-Forming Units/ml. (Log
Virus yield ([20]; 6.2 mcg/ml, 0 Hour to +6 Hour, 48 Hours, no drug 7.0): 6.1 Plaque-Forming Units/ml. (Log
Virus yield ([20]; 6.2 mcg/ml, +1 Hour to +7 Hour, 24 Hours, no drug 7.0): 4.5 Plaque-Forming Units/ml. (Log
Virus yield ([20]; 6.2 mcg/ml, +1 Hour to +7 Hour, 48 Hours, no drug 7.2): 5.6 Plaque-Forming Units/ml. (Log
Virus yield ([20]; 12.5 mcg/ml, +1 Hour to +7 Hour, 24 Hours, no drug 7.0): 3.8 Plaque-Forming Units/ml. (Log
Virus yield ([20]; 12.5 mcg/ml, +1 Hour to +7 Hour, 48 Hours, no drug 7.2): 5.2 Plaque-Forming Units/ml. (Log
IC50 [21]: 1.6 to 3.1 µg/mL (≈ 5.44 to 10.5 µM)
IC50 [22]: 0.4 µg/mL (≈ 1.36 µM)
Clinical Symptom Scores ([23]; individual subjects on medication (No. 3, 4, 6, 7, 9, 10, 13, 14, 17, 20, in order of lines), signs and symptoms scaled 0 not present to +3 severe): 0 and 11 and 2 and 4 and 3 and 5 and 6 and 1
protection of humans from rhinovirus type 32 infection [23]: effective in protecting humans from rhinovirus type 32 infection
volunteers who did not develop rhinovirus infection from challenge ([23]; rhinovirus type 32 challenge, placebo 4 of 10): 9 of 10
IC50 [24]: 0.2 to 0.4 µg/mL (≈ 0.679 to 1.36 µM)
IC50 [25]: 1.6 to 3.1 µg/mL (≈ 5.44 to 10.5 µM)
inhibition of virus growth ([26]; by inhibitory effects on virus plaque formation and virus yield): concentration-related inhibition
activity against rhinoviruses and other picornaviruses ([26]; human cell cultures): active against a broad spectrum of rhinoviruses and other picornaviruses
IC50 [27]: 0.4 µg/mL (≈ 1.36 µM)
IC50 [28]: 0.4 to 0.8 µg/mL (≈ 1.36 to 2.72 µM)
IC50 [29]: 1.6 to 3.1 µg/mL (≈ 5.44 to 10.5 µM)
